Structures are written as SMILES. Structures can show the parent of a compound that is named as a salt. Where two headings read alike, the source gives them in different places.

In one assay the test system is IL-23p19. Briefly: LPS induced IL23p19 in THP-1 cells (with IFNγ primed) assay. Format: cell-based, Human. In a few lines: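 THP-1 cells primed ~18 h with IFNγ (50 ng/mL), pre-incubated 1 h with compound at 37 °C, then stimulated 18 h with LPS (1 ug/mL final). Supernatant IL-23p19 measured by sandwich ELISA with chemiluminescent read-out; EC50 from curve fitting. Toxicity checked on the remaining cells by Cell Titer Glo.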

For the next assay, the system named is IL-23 (p19/p40). Nature of the assay: IL23-p19 ELISA, Dendritic, LPS (compound screening using DC cells). Format: cell-based, Human. In a few lines: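 Human PBMC-derived dendritic cells (7 d GM-CSF 100 ng/ml + IL-4 20 ng/ml), primed 24 h with IFNγ 50 ng/ml, pre-incubated 1 h with compound, then stimulated 18 h with LPS 1 μg/ml. Supernatant IL-23 measured by p19-capture/p40-detection chemiluminescent ELISA; CellTiter Glo checks cytotoxicity.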

The mark [1] stands for this setting: Homo sapiens, THP-1, 18 h, THP-1 cells, IFNγ primed, LPS 1 ug/mL, 18 hours, 10 pt, read-out: IL23-p19 ELISA, THP1-IFNy, LPS, 10 pt EC50.
Where [2] appears, read: Homo sapiens, 18 h, PBMC-derived DC cells, IFNγ primed, LPS 1 μg/ml, 18 hours, 10 pt, read-out: IL23-p19 ELISA, Dendritic, LPS, 10 pt, EC50.
[3] abbreviates: THP-1 cells, IFNγ primed, LPS 1 ug/mL, 18 hours, 10 pt, read-out: IL23-p19 ELISA, THP1-IFNy, LPS, 10 pt EC50.
[4] abbreviates: PBMC-derived DC cells, IFNγ primed, LPS 1 μg/ml, 18 hours, 10 pt, read-out: IL23-p19 ELISA, Dendritic, LPS, 10 pt, EC50.

Take `O=C(Nc1cn([C@H]2CC[C@H](O)C2)nc1-c1ccccn1)c1ccc(-c2cn[nH]c2)o1` [Compound I-136, N-(1-((1S,3S)-3-hydroxycyclopentyl)-3-(pyridin-2-yl)-1H-pyrazol-4-yl)-5-(1H-pyrazol-4-yl)furan-2-carboxamide formate]: the values for the EC50 with IL-23p19 (setting [1]) and in the assay on IL-23 (p19/p40) (setting [2]) were 0.0448 µM and 0.0878 µM, respectively.

As for `CC(C)C(=O)N1CC(n2cc(NC(=O)c3ccc(-c4cn[nH]c4)o3)c(-c3ccccn3)n2)C1` [Compound I-95, N-[1-{1-Isobutyrylazetidin-3-yl}-3-(pyridine-2-yl)-1H-pyrazol-4-yl]-5-(1H-pyrazol-4-yl)furan-2-carboxamide, formate salt], the figures for the half-maximal effective concentration (EC50) in the assay on IL-23p19 (setting [1]) and in the assay with IL-23 (p19/p40) (setting [2]) were 0.0678 µM and 0.0338 µM, respectively.

Turning to `CCN(CC)CCn1cc(NC(=O)c2csc(-c3cn[nH]c3)n2)c(-c2ccccn2)n1` [II-49, N-(1-(2-(diethylamino)ethyl)-3-(pyridin-2-yl)-1H-pyrazol-4-yl)-2-(1H-pyrazol-4-yl)thiazole-4-carboxamide], the 50% effective concentration (EC50) came to 0.238 µM in the assay with IL-23p19 (setting [3]) and 0.0812 µM with IL-23 (p19/p40) (setting [4]).

As for `CCO[C@H]1C[C@@H](n2cc(NC(=O)c3csc(-c4cn[nH]c4)n3)c(-c3ncccn3)n2)C1` [II-102, N-(1-((1,3-cis)-3-ethoxycyclobutyl)-3-(pyrimidin-2-yl)-1H-pyrazol-4-yl)-2-(1H-pyrazol-4-yl)thiazole-4-carboxamide], the EC50 was found to be 0.0619 µM with IL-23p19 (setting [1]) and 0.0554 µM in the assay on IL-23 (p19/p40) (setting [2]).

In the case of `COCCn1cc(NC(=O)c2ccc(-c3cnn(COP(=O)(O)O)c3)o2)c(-c2ccccn2)n1` [Compound I-14, sodium (4-(5-((1-(2-methoxyethyl)-3-(pyridin-2-yl)-1H-pyrazol-4-yl)carbamoyl)furan-2-yl)-1H-pyrazol-1-yl)methyl phosphate], the concentration for a half-maximal effect (EC50) with IL-23p19 (Homo sapiens, THP-1, 18 h, read-out: IL23-p19 ELISA, THP1-IFNy, LPS, 10 pt EC50 (μM)) stood at 1.25 µM; with IL-23 (p19/p40) (Homo sapiens, 18 h, read-out: IL23-p19 ELISA, Dendritic, LPS, 10 pt, EC50 (μM)), 0.571 µM.

On to `Cn1cc(NC(=O)c2csc(-c3cn[nH]c3)n2)c(-c2ccccn2)n1` [II-26, N-(1-methyl-3-(pyridin-2-yl)-1H-pyrazol-4-yl)-2-(1H-pyrazol-4-yl)thiazole-4-carboxamide], for which the results for the EC50 in the assay with IL-23p19 (setting [1]) and in the assay with IL-23 (p19/p40) (setting [2]) were 0.0771 µM and 0.113 µM, respectively.

In the case of `CCO[C@H]1C[C@@H](n2cc(NC(=O)c3csc(-c4cn[nH]c4F)n3)c(-c3ccccn3)n2)C1` [II-73, N-(1-((1s,3s)-3-ethoxycyclobutyl)-3-(pyridin-2-yl)-1H-pyrazol-4-yl)-2-(5-fluoro-1H-pyrazol-4-yl)thiazole-4-carboxamide], the concentration giving a half-maximal response (EC50) in the assay with IL-23p19 (setting [3]) is 0.369 µM; in the assay with IL-23 (p19/p40) (setting [4]), 0.343 µM.

As to `[2H]C([2H])([2H])C([2H])([2H])O[C@H]1C[C@@H](n2cc(NC(=O)c3csc(-c4cn[nH]c4)n3)c(-c3ccccn3)n2)C1` [II-127, N-(1-((1s,3s)-3-(ethoxy-d5)cyclobutyl)-3-(pyridin-2-yl)-1H-pyrazol-4-yl)-2-(1H-pyrazol-4-yl)thiazole-4-carboxamide], the EC50 came to 0.0487 µM with IL-23p19 (setting [1]) and 0.081 µM in the assay on IL-23 (p19/p40) (setting [2]).

`CN(C)C(=O)n1cc(NC(=O)c2csc(-c3cn[nH]c3)n2)c(-c2ccccn2)n1` [II-125, N-(1-(dimethylcarbamoyl)-3-(pyridin-2-yl)-1H-pyrazol-4-yl)-2-(1H-pyrazol-4-yl)thiazole-4-carboxamide]: the concentration giving a half-maximal response (EC50) in the assay on IL-23p19 (setting [1]) was found to be 1.24 µM; in the assay with IL-23 (p19/p40) (setting [2]) it was 27.3 µM.

`COCCn1cc(NC(=O)c2ccc(-c3cnn(COP(=O)(O)OC(C)(C)C)c3)o2)c(-c2ccccn2)n1` [Compound I-11, tert-butyl ((4-(5-((1-(2-methoxyethyl)-3-(pyridin-2-yl)-1H-pyrazol-4-yl)carbamoyl)furan-2-yl)-1H-pyrazol-1-yl)methyl) hydrogen phosphate]: the values for the 50% effective concentration (EC50) with IL-23p19 (setting [1]) and in the assay on IL-23 (p19/p40) (setting [2]) were 4.84 µM and 5.19 µM, respectively.

On to `COCCOCCn1cc(NC(=O)c2csc(-c3c[nH]nc3C)n2)c(-c2ccccn2)n1` [II-39, N-(1-(2-(2-methoxyethoxy)ethyl)-3-(pyridin-2-yl)-1H-pyrazol-4-yl)-2-(3-methyl-1H-pyrazol-4-yl)thiazole-4-carboxamide], for which the concentration giving a half-maximal response (EC50) with IL-23p19 (setting [1]) worked out at 0.167 µM; in the assay on IL-23 (p19/p40) (setting [2]), 0.178 µM.

Turning to `COc1ccc(Cn2cc(-c3nc(C(=O)Nc4cn(CC(O)(C(F)(F)F)C(F)(F)F)nc4-c4ccccn4)cs3)cn2)cc1` [II-107, 2-(1-(4-methoxybenzyl)-1H-pyrazol-4-yl)-N-(3-(pyridin-2-yl)-1-(3,3,3-trifluoro-2-hydroxy-2-(trifluoromethyl)propyl)-1H-pyrazol-4-yl)thiazole-4-carboxamide], the EC50 in the assay with IL-23p19 (setting [1]) stood at 1.5 µM; with IL-23 (p19/p40) (setting [2]) it was 2.31 µM.

In the case of `O=C(Nc1cn(C2CN(CC(F)(F)F)C2)nc1-c1ccccn1)c1ccc(-c2cn[nH]c2)o1` [Compound I-97, TFA salt], the EC50 was 0.0362 µM with IL-23p19 (setting [1]) and 0.0329 µM with IL-23 (p19/p40) (setting [2]).

Turning to `Cc1n[nH]cc1-c1nc(C(=O)Nc2cn(C(F)F)nc2-c2ccccn2)cs1` [II-96, N-(1-(difluoromethyl)-3-(pyridin-2-yl)-1H-pyrazol-4-yl)-2-(3-methyl-1H-pyrazol-4-yl)thiazole-4-carboxamide], the values for the EC50 in the assay with IL-23p19 (setting [1]) and in the assay on IL-23 (p19/p40) (setting [2]) were 0.0837 µM and 0.457 µM, respectively.

Take `Cn1cc(NC(=O)c2csc(-c3cnn(COP(=O)(O)O)c3)n2)c(-c2ccccn2)n1` [II-35, (4-(4-((1-methyl-3-(pyridin-2-yl)-1H-pyrazol-4-yl)carbamoyl)thiazol-2-yl)-1H-pyrazol-1-yl)methyl dihydrogen phosphate]: the EC50 in the assay on IL-23p19 (setting [1]) was 0.206 µM; in the assay on IL-23 (p19/p40) (setting [2]), 0.292 µM.

Turning to `CN1CCN(c2ccc(-c3nn(C)cc3NC(=O)c3ccc(-c4cn[nH]c4)o3)nc2)CC1` [Compound I-106, N-(1-methyl-3-(5-(4-methylpiperazin-1-yl)pyridin-2-yl)-1H-pyrazol-4-yl)-5-(1H-pyrazol-4-yl)furan-2-carboxamide], the figures for the EC50 in the assay with IL-23p19 (setting [1]) and with IL-23 (p19/p40) (setting [2]) were 18.9 µM and 1.22 µM, respectively.

As for `O=C(Nc1cn([C@H]2CC[C@H](O)CC2)nc1-c1ccccn1)c1ccc(-c2cn[nH]c2)o1` [Compound I-126, N-(1-((1r,4r)-4-hydroxycyclohexyl)-3-(pyridin-2-yl)-1H-pyrazol-4-yl)-5-(1H-pyrazol-4-yl)furan-2-carboxamide formate], the concentration giving a half-maximal response (EC50) in the assay on IL-23p19 (setting [1]) is 0.0819 µM; with IL-23 (p19/p40) (setting [2]), 0.0215 µM.

Consider `COCCn1cc(NC(=O)c2ccc(-c3cnn(C(=O)OC(C)OC(=O)C(C)C)c3)o2)c(-c2ccccn2)n1` (stereo not shown) [Compound I-19, 1-(isobutyryloxy)ethyl 4-(5-((1-(2-methoxyethyl)-3-(pyridin-2-yl)-1H-pyrazol-4-yl)carbamoyl)furan-2-yl)-1H-pyrazole-1-carboxylate], for which the EC50 in the assay on IL-23p19 (setting [1]) came out at 0.3 µM; with IL-23 (p19/p40) (setting [2]), 0.337 µM.

On to `Cn1cc(-c2ccc(C(=O)Nc3cn(C)nc3-c3ccccn3)o2)cn1` [Compound I-69, 5-(1-Methyl-1H-pyrazol-4-yl)-N-{1-methyl-3-(pyridine-2-yl)-1H-pyrazol-4-yl}furan-2-carboxamide, formate salt], for which the results for the concentration for a half-maximal effect (EC50) with IL-23p19 (setting [1]) and with IL-23 (p19/p40) (setting [2]) were 1.25 µM and 0.325 µM, respectively.

`CCOCCn1cc(NC(=O)c2coc(-c3cn[nH]c3)n2)c(-c2ccccn2)n1` [III-3, N-(1-(2-ethoxyethyl)-3-(pyridin-2-yl)-1H-pyrazol-4-yl)-2-(1H-pyrazol-4-yl)oxazole-4-carboxamide]: the results for the EC50 in the assay on IL-23p19 (setting [1]) and in the assay on IL-23 (p19/p40) (setting [2]) were 0.243 µM and 0.17 µM, respectively.

For the origin of these results see patent US10208074B2, “Pyrazole compounds and method for making and using the compounds” (Rigel Pharmaceuticals, Inc., priority 2015, dated 2019).
